{"source": "patent US20140213446A1", "about": "“HERBICIDAL COMPOSITIONS AND METHODS USING COMBINATIONS OF 4-AMINO-3-CHLORO-6-(4-CHLORO-2-FLUORO-3-METHOXYPHENYL)PYRIDINE-2-CARBOXYLIC ACID OR A DERIVATIVE THEREOF AND AN ARYLOXYPHENOXY PROPIONATE ACCASE INHIBITOR HERBICIDE” (DOW AGROSCIENCES LLC, priority 2013, published 2014)", "experiment_in_all_cases": "Postemergence foliar-applied herbicidal mixtures, weeds common to row crops", "type_in_all_cases": "in vivo", "key": {"[1]": {"system": "SORHA Sorghum halepense (L.) Pers. (Johnsongrass)", "from_the_text": "(§1) Evaluation of Postemergence Foliar-Applied Herbicidal Mixtures for Control of Weeds Common to Row Crops such as Corn and Soybeans. Seeds or nutlets of the desired test plant species were planted in a soil matrix prepared by mixing a loam or sandy loam soil (e.g., 28.6 percent silt, 18.8 percent clay, and 52.6 percent sand, with a pH of about 5.8 and an organic matter content of about 1.8 percent) and calcareous grit in an 80 to 20 ratio. The soil matrix was contained in plastic pots with a surface area of 84.6 cm^2 and a volume of 560 cubic centimeters (cm^3). When required to ensure good germination and healthy plants, a fungicide treatment and/or other chemical or physical treatment was applied. The plants were grown for 7-31 d in a greenhouse with an approximate 15 h photoperiod which was maintained at about 23-29° C. during the day and 22-28° C. during the night. Nutrients (Peters Excel® 15-5-15 5-Ca 2-Mg) and water were added on a regular basis and supplemental lighting was provided with overhead metal halide 1000-Watt lamps as necessary. The plants were employed for testing when they reached the first, second, or third true leaf stage.\n(§2) Treatment requirements were calculated based upon the rates being tested, the concentration of active ingredient or acid equivalent in the formulation, and a 12 mL application volume at a rate of 187 L/ha.\n(§3) Treatments consisted of the potassium (K^+) salt of 4-amino-3-chloro-6-(4-chloro-2-fluoro-3-methoxyphenyl)-pyridine-2-carboxylic acid (Cmpd 4) formulated as a soluble liquid (SL), the propargyl ester of 4-amino-3-chloro-6-(4-chloro-2-fluoro-3-methoxyphenyl)-pyridine-2-carboxylic acid (Cmpd 2) as technical grade material, or the benzyl ester of 4-amino-3-chloro-6-(4-chloro-2-fluoro-3-methoxyphenyl)-pyridine-2-carboxylic acid (Cmpd 3) as technical grade material and quizalofop-p-ethyl (Assure® II) alone and in combination. Forms of compound of formula (I) and quizalofop-P-ethyl were applied on an acid equivalent basis.\n(§4) For treatments comprised of formulated compounds, measured amounts of compounds were placed individually in 25 mL glass vials and diluted in a volume of 1.5% (v/v) Agri-Dex® crop oil concentrated to obtain 6× stock solutions. […] Application solutions were prepared by adding an appropriate amount of each stock solution (typically 2 mL) and diluted to the appropriate final concentrations with the addition of an appropriate amount of an aqueous mixture of 1.5% (v/v) crop oil concentrate and water so that the final spray solutions contained 1.25+/−0.05% (v/v) crop oil concentrate.\n(§5) For treatments comprised of formulated and technical compounds, weighed amounts of the technical materials were placed individually in 25 mL glass vials and dissolved in a volume of 97:3 v/v acetone/DMSO to obtain 6× stock solutions, and measured amounts of the formulated compounds were placed individually in 25 mL glass vials and diluted in a volume of 1.5% (v/v) crop oil concentrate or water to obtain 6× stock solutions. […] Application solutions were prepared by adding an appropriate amount of each stock solution (e.g., 2 mL) and diluted to the appropriate final concentrations with the addition of an appropriate amount of an aqueous mixture of 1.5% (v/v) crop oil concentrate and water so that the final spray solutions contained 1.25% (v/v) crop oil concentrate. When required, additional water and/or 97:3 v/v acetone/DMSO can be added to individual application solutions so that the final acetone and DMSO concentrations of the application solutions being compared are 16.2% and 0.5%, respectively.\n(§6) All stock solutions and applications solutions were visually inspected for compound compatibility prior to application. Compound requirements are based upon a 12 mL application volume at a rate of 187 liters per hectare (L/ha). […]"}, "[2]": {"system": "OEOBI Oenothera biennis (evening primrose)", "from_the_text": "as §1, §2, §3, §4, §5, §6"}, "[3]": {"system": "LOLMU Lolium multiflorum Lam. (Italian ryegrass)", "from_the_text": "as §1, §2, §3, §4, §5, §6"}, "[4]": {"system": "AVEFA Avena fatua L. (wild oat)", "from_the_text": "as §1, §2, §3, §4, §5, §6"}, "[5]": {"system": "DIGSA Digitaria sanguinalis (L.) Scop. (large crabgrass)", "from_the_text": "as §1, §2, §3, §4, §5, §6"}}}
{"compound": "C#CCOC(=O)c1nc(-c2ccc(Cl)c(OC)c2F)cc(N)c1Cl", "note": "[Cmpd 2, propargyl ester of 4-amino-3-chloro-6-(4-chloro-2-fluoro-3-methoxyphenyl)-pyridine-2-carboxylic acid]", "values": [{"measurement": "Percent (%) injury rated visually 14 DAA Obs", "setting": "[1]; Cmpd 2 3.75 g ae/ha", "result": 0, "unit": "%"}, {"measurement": "Percent (%) injury rated visually 14 DAA Obs", "setting": "[1]; Cmpd 2 7.5 g ae/ha", "result": 0, "unit": "%"}, {"measurement": "Percent (%) injury rated visually 14 DAA Obs", "setting": "[1]; Cmpd 2 15 g ae/ha", "result": 10, "unit": "%"}, {"measurement": "Percent (%) injury rated visually 14 DAA Obs", "setting": "[2]; Cmpd 2 3.75 g ae/ha", "result": 65, "unit": "%"}]}
{"compound": "COc1c(Cl)ccc(-c2cc(N)c(Cl)c(C(=O)OCc3ccccc3)n2)c1F", "note": "[Cmpd 3, benzyl ester of 4-amino-3-chloro-6-(4-chloro-2-fluoro-3-methoxyphenyl)-pyridine-2-carboxylic acid]", "values": [{"measurement": "Percent (%) injury rated visually 14 DAA Obs", "setting": "[3]; Cmpd 3 3.75 g ae/ha", "result": 15, "unit": "%"}, {"measurement": "Percent (%) injury rated visually 14 DAA Obs", "setting": "[3]; Cmpd 3 7.5 g ae/ha", "result": 50, "unit": "%"}, {"measurement": "Percent (%) injury rated visually 14 DAA Obs", "setting": "[3]; Cmpd 3 15 g ae/ha", "result": 40, "unit": "%"}, {"measurement": "Percent (%) injury rated visually 14 DAA Obs", "setting": "[4]; Cmpd 3 3.75 g ae/ha", "result": 10, "unit": "%"}, {"measurement": "Percent (%) injury rated visually 14 DAA Obs", "setting": "[4]; Cmpd 3 7.5 g ae/ha", "result": 0, "unit": "%"}, {"measurement": "Percent (%) injury rated visually 14 DAA Obs", "setting": "[4]; Cmpd 3 15 g ae/ha", "result": 0, "unit": "%"}, {"measurement": "Percent (%) injury rated visually 14 DAA Obs", "setting": "[5]; Cmpd 3 3.75 g ae/ha", "result": 40, "unit": "%"}, {"measurement": "Percent (%) injury rated visually 14 DAA Obs", "setting": "[5]; Cmpd 3 7.5 g ae/ha", "result": 40, "unit": "%"}, {"measurement": "Percent (%) injury rated visually 14 DAA Obs", "setting": "[5]; Cmpd 3 15 g ae/ha", "result": 35, "unit": "%"}]}
{"compound": "potassium (K^+) salt of 4-amino-3-chloro-6-(4-chloro-2-fluoro-3-methoxyphenyl)-pyridine-2-carboxylic acid [Cmpd 4]", "values": [{"measurement": "Percent (%) injury rated visually 14 DAA Obs", "setting": "[3]; Cmpd 4 3.75 g ae/ha", "result": 0, "unit": "%"}, {"measurement": "Percent (%) injury rated visually 14 DAA Obs", "setting": "[3]; Cmpd 4 7.5 g ae/ha", "result": 15, "unit": "%"}, {"measurement": "Percent (%) injury rated visually 14 DAA Obs", "setting": "[3]; Cmpd 4 15 g ae/ha", "result": 40, "unit": "%"}, {"measurement": "Percent (%) injury rated visually 14 DAA Obs", "setting": "[1]; Cmpd 4 3.75 g ae/ha", "result": 0, "unit": "%"}, {"measurement": "Percent (%) injury rated visually 14 DAA Obs", "setting": "[1]; Cmpd 4 7.5 g ae/ha", "result": 0, "unit": "%"}, {"measurement": "Percent (%) injury rated visually 14 DAA Obs", "setting": "[1]; Cmpd 4 15 g ae/ha", "result": 10, "unit": "%"}, {"measurement": "Percent (%) injury rated visually 14 DAA Obs", "setting": "[2]; Cmpd 4 3.75 g ae/ha", "result": 50, "unit": "%"}, {"measurement": "Percent (%) injury rated visually 14 DAA Obs", "setting": "[2]; Cmpd 4 7.5 g ae/ha", "result": 80, "unit": "%"}, {"measurement": "Percent (%) injury rated visually 14 DAA Obs", "setting": "[5]; Cmpd 4 3.75 g ae/ha", "result": 20, "unit": "%"}, {"measurement": "Percent (%) injury rated visually 14 DAA Obs", "setting": "[5]; Cmpd 4 7.5 g ae/ha", "result": 15, "unit": "%"}, {"measurement": "Percent (%) injury rated visually 14 DAA Obs", "setting": "[5]; Cmpd 4 15 g ae/ha", "result": 40, "unit": "%"}]}
